In patent US20140113904A1, “TREATMENT OF CANCER WITH TOR KINASE INHIBITORS” (SIGNAL PHARMACEUTICALS, LLC, priority 2012, published 2014):

Assays:
4EBP1 (T46) = experiment: p-4E-BP1 (T46) in PC-3 cell lysates, ELISA (Compound 2); type: cell-based; settings: Homo sapiens; PC-3, 1 hour; read-out: mTORC1 4EBP1 (T46) IC50
Experimental: The direct substrate for mTORC1 was 4E-BP1([…]) and the indirect downstream substrate was S6RP (S235/[…]). The direct substrate for mTORC2 was AKT (S473) and the indirect downstream substrates measured were GSK3β(S9) and PRAS40 ([…]). Additionally, the phosphorylation status of AKT (T308), a phosphorylation site for PDK1, was monitored. Concentration-response curves were plotted and IC50 values determined. Cells were plated at the required density as described in the previous section detailing the Meso Scale assays. […] After incubation with compound, the culture medium was removed via aspiration. Then the plate was placed on ice and 35 μL of the Invitrogen Cell Extraction Buffer (containing fresh PMSF and protease inhibitor cocktail) were added to each well. The treated cells were allowed to undergo lysis for a total of 30 minutes on ice and then shaken for 2 minutes at 4° C. At this point, the plate could be either frozen at -80° C. for later analysis or analyzed immediately with the Invitrogen 4E-BP1[[…]] assay kit. Standards were prepared according to the supplied protocol and 100 μL of each standard was added to appropriate wells. Samples containing Cell Extraction buffer only or diluent buffers only also were included for background controls. […] Absorbance was measured at 450 nm on the VICTORTM X2 multilabel plate reader (Perkin Elmer).

S6RP(S235/S236) = experiment: Phospho-S6RP(S235/S236) in PC3 cell lysates, MSD; type: cell-based, human; settings: PC3, 1 hour exposure; read-out: p-S6RP(S235/S236) IC50
Description: The direct substrate for TORC1 was 4E-BP 1(T46) and indirect downstream substrate was S6RP(S235/S236). The direct substrate for TORC2 was Akt(S473) and indirect downstream substrates measured were GSK3β(S9) and PRAS40(T246). Additionally, the phosphorylation status of Akt(T308), a phosphorylation site for PDK1 was monitored.
MSD® biomarker detection assays provide a rapid and convenient method for measuring the total and phosphorylated levels of protein targets within a single small volume sample. These assays are available in both single-plex and multiplex formats. In a single-plex assay, an antibody for a specific protein target is coated on one electrode (or spot) per well. […] MSD Read Buffer that provides the appropriate chemical environment for ECL is added and the plate is read using an MSD SECTOR™ Imager. […] The instrument measures intensity of the emitted light to afford a quantitative measure of the amount of phosphorylated Akt or S6RP present in the sample. […]
The assay plate was incubated with 150 μL of MSD Blocker A Solution for 1 hour with shaking at room temperature. […] Then 150 μL of 1×MSD Read Buffer T was added to each well. The plate was read on the SECTOR Imager plate reader. The Excel data was transferred to Activity Base and IC50 values were calculated.
All data was analyzed using XLfit from IDBS. […]

[1] = 5-day tolerability study of Compound 1 in PC3 tumor-bearing mice (body weight); type: in vivo, SCID mice
Experimental: Plasma and tumor samples were collected 24 hours after the last dose in each dose group.
Mice were monitored daily for clinical signs and body weight changes. At the end of the study, mice were euthanized and plasma and tumor samples were collected for PK/PD determination. PD markers, pS6 and pAkt, were measured using MSD technology.
Initial body weights were recorded prior to the initiation of treatment using a digital scale. The percent body weight change during the course of the study was calculated using initial body weight measurements. Body weights of each animal were measured twice a week at the same time that tumor measurements were taken. Body weights were measured more frequently if significant decreases were noted during the course of the study.
In preparation for xenograft studies, a 5-day tolerability study was performed. […] The animals in the 50 mg/kg dose group lost >17% of the starting body weight by Day 5 (24 hours after the 4th dose). The animals in this group were euthanized. By Day 6 (24 hours after the 5th dose), the animals in the 25 mg/kg and 10 mg/kg groups lost 9% and 4%, respectively, of the starting body weight.

Row | IC50 (4EBP1 (T46)) [nM] | IC50 (S6RP(S235/S236)) [nM] | SMILES | loss of starting body weight ([1]; 10 mg/kg QD oral, Day 6 (24 hours after the 5th dose)) [%] | loss of starting body weight ([1]; 25 mg/kg QD oral, Day 6 (24 hours after the 5th dose)) [%] | loss of starting body weight ([1]; 50 mg/kg QD oral, Day 5 (24 hours after the 4th dose)) [%]
1 | 130 | – | CCN1C(=O)CNc2ncc(-c3ccc(-c4nc[nH]n4)nc3C)nc21 [Compound 2, 1-ethyl-7-(2-methyl-6-(1H-1,2,4-triazol-3-yl)pyridin-3-yl)-3,4-dihydropyrazino[2,3-b]pyrazin-2(1H)-one] | – | – | –
2 | – | 20 | CO[C@H]1CC[C@H](N2C(=O)CNc3ncc(-c4ccc(C(C)(C)O)nc4)nc32)CC1 [Compound 1, 7-(6-(2-hydroxypropan-2-yl)pyridin-3-yl)-1-((1r,4r)-4-methoxycyclohexyl)-3,4-dihydropyrazino-[2,3-b]pyrazin-2(1H)-one] | 4 | 9 | > 17
